The structures appear in SMILES notation. Some results are limits rather than exact numbers.

Data set [1] in a line: physchem. The format is physicochemical.
Data set [2] is described as follows: physchem. The format is physicochemical. The source holds these as a separate data set.
Data set [3] has as its target human carbonic anhydrase II (hCAII) (Homo sapiens, UniProt P00918). Description: hCAII assay. The format is biochemical.

By pKa is commonly meant the pH at which an ionisable group is half protonated. A lower pKa goes with a stronger acid or weaker base. The term logP denotes the decadic logarithm of the partition coefficient of the neutral form, usually between octanol and water. One may read the logD as the decadic logarithm of the distribution of all forms, ionised or not, between an organic phase and buffer at a given pH. A low value points to a more hydrophilic compound. In general, IC50 refers to the concentration needed to halve the response being measured. Read a high IC50 as a need for much substance. For `O=C(O)c1ccccn1` [Compound 1, picolinic acid], in “physchem [1]”, the pKa was below 1.5. Moreover, the logP in “physchem [2]” is below -2. The molecule also gave a logD in “physchem [2]” (pH 7.4) below -2. In data set [3], this molecule showed an IC50 above 1000 µM.

For the origin of these results see PMC6289299 (Inorganic chemistry, 2018).
